From ChEMBL document CHEMBL1201862, “PubChem BioAssay data set” (2004)
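Step 1: Grow cells in 96-well plates. Step 2: Expose to compound for 48 hours at 5 concentrations. Step 3: Interpolate endpoints linearly; if unreached, use highest concentration. Abbreviation: GI50, concentration required for 50% inhibition of growth.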 Active and inactive are the calls of the source. Rule as the data show it: active = GI50 up to about 1.1 µM and inactive = higher.

How the values were obtained:
Assay in all cases: NCI tumour cell line growth inhibition, 48 h
OVCAR-4 = tested on: OVCAR-4
HL-60 = tested on: HL-60
T47D = tested on: T47D
MDA-MB-435 = tested on: MDA-MB-435
COLO 205 = tested on: COLO 205
HCT-116 = tested on: HCT-116
IGROV-1 = tested on: IGROV-1
LOX IMVI = tested on: LOX IMVI
SF-539 = tested on: SF-539
SF-295 = tested on: SF-295
NCI-H460 = tested on: NCI-H460
MDA-N = tested on: MDA-N
MOLT-4 = tested on: MOLT-4
RPMI-8226 = tested on: RPMI-8226
786-0 = tested on: 786-0
HOP-92 = tested on: HOP-92
OVCAR-5 = tested on: OVCAR-5
MCF7 = tested on: MCF7
UACC-62 = tested on: UACC-62
A549 = tested on: A549
NCI/ADR-RES = tested on: NCI/ADR-RES
HT-29 = tested on: HT-29
MDA-MB-231 = tested on: MDA-MB-231
SK-MEL-28 = tested on: SK-MEL-28
Malme-3M = tested on: Malme-3M
CAKI-1 = tested on: CAKI-1
UACC-257 = tested on: UACC-257
SK-MEL-5 = tested on: SK-MEL-5
SK-OV-3 = tested on: SK-OV-3
HOP-62 = tested on: HOP-62
ACHN = tested on: ACHN
NCI-H522 = tested on: NCI-H522
K562 = tested on: K562
U-251 = tested on: U-251
EKVX = tested on: EKVX
SW-620 = tested on: SW-620
TK-10 = tested on: TK-10
UO-31 = tested on: UO-31
DU-145 = tested on: DU-145
SF-268 = tested on: SF-268
OVCAR-8 = tested on: OVCAR-8
SNB-75 = tested on: SNB-75
OVCAR-3 = tested on: OVCAR-3
BT-549 = tested on: BT-549
SN12C = tested on: SN12C
KM12 = tested on: KM12
CCRF-CEM = tested on: CCRF-CEM
SNB-19 = tested on: SNB-19
PC-3 = tested on: PC-3
NCI-H23 = tested on: NCI-H23
M14 = tested on: M14
HCT-15 = tested on: HCT-15
A498 = tested on: A498
HCC 2998 = tested on: HCC 2998
SK-MEL-2 = tested on: SK-MEL-2
NCI-H226 = tested on: NCI-H226
RXF 393 = tested on: RXF 393
SR = tested on: SR

Question: Which results are given for `CN(C)c1ccc(/C=c2/c3ccccc3n3c2cc(C24CC5CC(CC(C5)C2)C4)[n+]3C)cc1`?
Answer: GI50 (OVCAR-4): 0.337 µM (active); GI50 (HL-60): 0.231 µM (active); GI50 (T47D): 0.124 µM (active); GI50 (MDA-MB-435): 0.176 µM (active); GI50 (COLO 205): 0.0877 µM (active); GI50 (HCT-116): 0.0828 µM (active); GI50 (IGROV-1): 0.127 µM (active); GI50 (LOX IMVI): 0.326 µM (active); GI50 (SF-539): 0.123 µM (active); GI50 (SF-295): 0.32 µM (active); GI50 (NCI-H460): 0.313 µM (active); GI50 (MDA-N): 0.33 µM (active); GI50 (MOLT-4): 0.998 µM (active); GI50 (RPMI-8226): 0.053 µM (active); GI50 (786-0): 0.126 µM (active); GI50 (HOP-92): 0.366 µM (active); GI50 (OVCAR-5): 0.409 µM (active); GI50 (MCF7): 0.0615 µM (active); GI50 (UACC-62): 0.345 µM (active); GI50 (A549): 0.205 µM (active); GI50 (NCI/ADR-RES): 1.52 µM (inactive); GI50 (HT-29): 0.299 µM (active); GI50 (MDA-MB-231): 0.281 µM (active); GI50 (SK-MEL-28): 0.643 µM (active); GI50 (Malme-3M): 0.527 µM (active); GI50 (CAKI-1): 0.234 µM (active); GI50 (UACC-257): 0.251 µM (active); GI50 (SK-MEL-5): 0.158 µM (active); GI50 (SK-OV-3): 0.377 µM (active); GI50 (HOP-62): 0.411 µM (active); GI50 (ACHN): 0.23 µM (active); GI50 (NCI-H522): 0.0923 µM (active); GI50 (K562): 0.0998 µM (active); GI50 (U-251): 0.0664 µM (active); GI50 (EKVX): 0.344 µM (active); GI50 (SW-620): 0.148 µM (active); GI50 (TK-10): 0.39 µM (active); GI50 (UO-31): 0.29 µM (active); GI50 (DU-145): 0.311 µM (active); GI50 (SF-268): 0.555 µM (active); GI50 (OVCAR-8): 0.129 µM (active); GI50 (SNB-75): 0.394 µM (active); GI50 (OVCAR-3): 0.476 µM (active); GI50 (BT-549): 0.245 µM (active); GI50 (SN12C): 0.324 µM (active); GI50 (KM12): 0.156 µM (active); GI50 (CCRF-CEM): 0.117 µM (active); GI50 (SNB-19): 0.266 µM (active); GI50 (PC-3): 0.125 µM (active); GI50 (NCI-H23): 0.261 µM (active); GI50 (M14): 0.32 µM (active); GI50 (HCT-15): 0.446 µM; GI50 (A498): 0.314 µM (active); GI50 (HCC 2998): 0.353 µM (active); GI50 (SK-MEL-2): 0.313 µM (active); GI50 (NCI-H226): 0.396 µM (active)

Question: How did the GI50 (OVCAR-4) turn out when `O=C(NNCc1ccc(Cl)cc1)Nc1cccc2ccccc12` was run?
Answer: > 100 µM (inactive)

Question: And the GI50 (HL-60)?
Answer: > 100 µM (inactive)

Question: And the GI50 (T47D)?
Answer: 28.6 µM (inactive)

Question: What about the GI50 (MDA-MB-435) of the same compound?
Answer: 52.6 µM (inactive)

Question: And the GI50 (COLO 205)?
Answer: > 100 µM (inactive)

Question: And the GI50 (HCT-116)?
Answer: 63 µM (inactive)

Question: What about the GI50 (IGROV-1) of the same compound?
Answer: > 100 µM (inactive)

Question: What about the GI50 (LOX IMVI) of the same compound?
Answer: > 100 µM (inactive)

Question: What about the GI50 (SF-539) of the same compound?
Answer: 47.4 µM (inactive)

Question: And the GI50 (SF-295)?
Answer: 82 µM (inactive)

Question: What about the GI50 (NCI-H460) of the same compound?
Answer: 41.5 µM (inactive)

Question: And the GI50 (MDA-N)?
Answer: > 100 µM (inactive)

Question: What about the GI50 (MOLT-4) of the same compound?
Answer: 29.4 µM (inactive)

Question: And the GI50 (RPMI-8226)?
Answer: 16.4 µM (inactive)

Question: What about the GI50 (786-0) of the same compound?
Answer: 51.6 µM (inactive)

Question: What about the GI50 (HOP-92) of the same compound?
Answer: 29.3 µM (inactive)

Question: What about the GI50 (OVCAR-5) of the same compound?
Answer: 94.6 µM (inactive)

Question: And the GI50 (RXF 393)?
Answer: > 100 µM (inactive)

Question: And the GI50 (MCF7)?
Answer: 26.8 µM (inactive)

Question: And the GI50 (UACC-62)?
Answer: 90.4 µM (inactive)

Question: What about the GI50 (NCI/ADR-RES) of the same compound?
Answer: > 100 µM (inactive)

Question: And the GI50 (HT-29)?
Answer: > 100 µM (inactive)

Question: And the GI50 (SK-MEL-28)?
Answer: > 100 µM (inactive)

Question: And the GI50 (Malme-3M)?
Answer: > 100 µM (inactive)

Question: And the GI50 (CAKI-1)?
Answer: 42.7 µM (inactive)

Question: And the GI50 (UACC-257)?
Answer: > 100 µM (inactive)

Question: What about the GI50 (SK-MEL-5) of the same compound?
Answer: 76.2 µM (inactive)

Question: And the GI50 (HOP-62)?
Answer: 48.2 µM (inactive)

Question: What about the GI50 (SR) of the same compound?
Answer: > 100 µM (inactive)

Question: What about the GI50 (ACHN) of the same compound?
Answer: 45 µM (inactive)

Question: And the GI50 (NCI-H522)?
Answer: 27.3 µM (inactive)

Question: And the GI50 (K562)?
Answer: > 100 µM (inactive)

Question: And the GI50 (U-251)?
Answer: 58.5 µM (inactive)

Question: And the GI50 (EKVX)?
Answer: > 100 µM (inactive)

Question: And the GI50 (SW-620)?
Answer: > 100 µM (inactive)

Question: And the GI50 (TK-10)?
Answer: > 100 µM (inactive)

Question: And the GI50 (UO-31)?
Answer: 84.1 µM (inactive)

Question: And the GI50 (DU-145)?
Answer: 69.2 µM (inactive)

Question: And the GI50 (SF-268)?
Answer: 93.1 µM (inactive)

Question: What about the GI50 (OVCAR-8) of the same compound?
Answer: > 100 µM (inactive)

Question: What about the GI50 (SNB-75) of the same compound?
Answer: > 100 µM (inactive)

Question: And the GI50 (OVCAR-3)?
Answer: > 100 µM (inactive)

Question: What about the GI50 (BT-549) of the same compound?
Answer: 97.1 µM (inactive)

Question: And the GI50 (SN12C)?
Answer: > 100 µM (inactive)

Question: And the GI50 (KM12)?
Answer: 68.4 µM (inactive)

Question: What about the GI50 (CCRF-CEM) of the same compound?
Answer: > 100 µM (inactive)

Question: What about the GI50 (SNB-19) of the same compound?
Answer: > 100 µM (inactive)

Question: And the GI50 (PC-3)?
Answer: > 100 µM (inactive)

Question: And the GI50 (NCI-H23)?
Answer: > 100 µM (inactive)

Question: And the GI50 (M14)?
Answer: > 100 µM (inactive)

Question: What about the GI50 (HCT-15) of the same compound?
Answer: > 100 µM

Question: What about the GI50 (HCC 2998) of the same compound?
Answer: > 100 µM (inactive)

Question: And the GI50 (SK-MEL-2)?
Answer: > 100 µM (inactive)

Question: And the GI50 (NCI-H226)?
Answer: > 100 µM (inactive)

Question: Which results are given for `COc1ccc2nc3n(c2c1)C(c1c(F)cccc1Cl)SC3` (stereo unspecified)?
Answer: GI50 (OVCAR-4): > 100 µM (inactive); GI50 (HL-60): 9.31 µM (inactive); GI50 (T47D): > 100 µM (inactive); GI50 (MDA-MB-435): > 100 µM (inactive); GI50 (COLO 205): > 100 µM (inactive); GI50 (HCT-116): > 100 µM (inactive); GI50 (IGROV-1): > 100 µM (inactive); GI50 (LOX IMVI): > 100 µM (inactive); GI50 (SF-295): > 100 µM (inactive); GI50 (NCI-H460): > 100 µM (inactive); GI50 (MDA-N): > 100 µM (inactive); GI50 (MOLT-4): > 100 µM (inactive); GI50 (RPMI-8226): > 100 µM (inactive); GI50 (786-0): > 100 µM (inactive); GI50 (HOP-92): 41.8 µM (inactive); GI50 (OVCAR-5): > 100 µM (inactive); GI50 (RXF 393): > 100 µM (inactive); GI50 (MCF7): > 100 µM (inactive); GI50 (UACC-62): > 100 µM (inactive); GI50 (A549): > 100 µM (inactive); GI50 (NCI/ADR-RES): 23.3 µM (inactive); GI50 (SK-MEL-28): > 100 µM (inactive); GI50 (CAKI-1): > 100 µM (inactive); GI50 (UACC-257): > 100 µM (inactive); GI50 (SK-MEL-5): > 100 µM (inactive); GI50 (SK-OV-3): > 100 µM (inactive); GI50 (HOP-62): > 100 µM (inactive); GI50 (SR): > 100 µM (inactive); GI50 (ACHN): > 100 µM (inactive); GI50 (K562): > 100 µM (inactive); GI50 (U-251): > 100 µM (inactive); GI50 (EKVX): > 100 µM (inactive); GI50 (SW-620): > 100 µM (inactive); GI50 (TK-10): > 100 µM (inactive); GI50 (UO-31): > 100 µM (inactive); GI50 (DU-145): > 100 µM (inactive); GI50 (OVCAR-8): 46.8 µM (inactive); GI50 (SNB-75): > 100 µM (inactive); GI50 (OVCAR-3): > 100 µM (inactive); GI50 (BT-549): > 100 µM (inactive); GI50 (SN12C): > 100 µM (inactive); GI50 (KM12): > 100 µM (inactive); GI50 (CCRF-CEM): > 100 µM (inactive); GI50 (SNB-19): > 100 µM (inactive); GI50 (PC-3): > 100 µM (inactive); GI50 (NCI-H23): > 100 µM (inactive); GI50 (M14): > 100 µM (inactive); GI50 (HCT-15): > 100 µM; GI50 (A498): > 100 µM (inactive); GI50 (HCC 2998): > 100 µM (inactive); GI50 (SK-MEL-2): > 100 µM (inactive)
